In BigSolDB 2.1:

CCOC(=O)c1ccc(O)cc1
solubility (mole fraction)
Settings	278.15 K	283.15 K	288.15 K	293.15 K	298.15 K	303.15 K	308.15 K	313.15 K	318.15 K
in acetonitrile	0.0703	0.0822	0.0995	0.121	0.148	0.178	0.214	0.252	0.293
in water	2.62e-05	3.64e-05	5.25e-05	7.52e-05	9.7e-05	0.000119	0.000145	0.000169	0.000192
